We go through twelve compounds from patent US7473790B2 (Pfizer Inc., priority 2003, dated 2009).

In this assay the target is T1, HCV polymerase (Hepatitis C virus genotype 1b, UniProt P26663).
T1 construct: 2.5 pmoles (0.15 μg) HCV polymerase protein in a final volume of 75 μL
T1 sequence (P26663 2420-3010): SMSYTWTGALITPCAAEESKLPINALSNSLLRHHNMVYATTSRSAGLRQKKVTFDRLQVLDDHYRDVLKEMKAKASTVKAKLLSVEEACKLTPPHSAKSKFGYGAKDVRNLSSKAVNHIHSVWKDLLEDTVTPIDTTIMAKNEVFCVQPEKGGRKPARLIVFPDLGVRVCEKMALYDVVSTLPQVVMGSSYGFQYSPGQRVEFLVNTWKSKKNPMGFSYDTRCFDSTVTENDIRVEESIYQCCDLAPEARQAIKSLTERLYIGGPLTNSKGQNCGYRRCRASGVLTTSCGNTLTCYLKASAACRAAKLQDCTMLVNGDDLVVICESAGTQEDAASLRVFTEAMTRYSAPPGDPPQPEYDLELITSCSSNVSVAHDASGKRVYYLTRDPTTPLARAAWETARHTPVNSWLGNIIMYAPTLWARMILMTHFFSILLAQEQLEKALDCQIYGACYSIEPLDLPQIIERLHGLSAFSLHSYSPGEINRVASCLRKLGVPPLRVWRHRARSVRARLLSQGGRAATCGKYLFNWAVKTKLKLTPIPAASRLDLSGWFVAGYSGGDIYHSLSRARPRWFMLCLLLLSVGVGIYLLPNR
As to the kind of experiment: HCV polymerase primer/template-directed transcription assay (32P-GTP incorporation, filter binding). The format is biochemical. The note with it: recombinant HCV polymerase; 30 minutes at 30° C.; concentration giving 50% inhibition of polymerase-directed transcription; read-out: IC50. The gist of the method: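 IC50s come from triplicate cpm, refit with an enzyme-concentration (30 nM) correction when under 200 nM. Reactions ran 30 min at 30° C in Tris pH 7.2 with MgCl2, 1 μM GTP spiked with α-32P-GTP, biotin-dG12 primer and poly(rC)300 template, with 1% DMSO. Incorporated label was collected on DE filtermats and counted.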
As for `N#CC1(c2ccc(CCC3(C4CCCC4)CC(O)=C(Cc4nc5ncc(Cl)cn5n4)C(=O)O3)cc2Cl)CC1` (stereo not drawn) [B(126), 1-(2-Chloro-4-{2-[5-(6-chloro-[1,2,4]triazolo[1,5-a]pyrimidin-2-ylmethyl)-2-cyclopentyl-4-hydroxy-6-oxo-3,6-dihydro-2H-pyran-2-yl]-ethyl}-phenyl)-cyclopropanecarbonitrile], the IC50 (usually the concentration needed to halve the response being measured) was found to be 23 nM. The value for `CC(C)Oc1ccc(CCC2(C3CCCC3)CC(O)=C(Sc3cccc4cccnc34)C(=O)O2)cc1F` (stereo not drawn) [C(01), 6-Cyclopentyl-6-[2-(3-fluoro-4-isopropoxy-phenyl)-ethyl]-4-hydroxy-3-(quinolin-8-ylsulfanyl)-5,6-dihydro-pyran-2-one] was 337 nM. In the case of `CC(C)Oc1ccc(CCC2(C3CCCC3)CC(O)=C(Sc3nc4cc(Cl)ccc4n3C(C)C)C(=O)O2)cc1F` (stereo not drawn) [C(02)], the IC50 was determined as 14 nM. The value for `COc1ccc(CCC2(C3CCCC3)CC(O)=C(Sc3cccc4cccnc34)C(=O)O2)cc1Cl` (stereo not drawn) [C(03), 6-[2-(3-Chloro-4-methoxy-phenyl)-ethyl]-6-cyclopentyl-4-hydroxy-3-(quinolin-8-ylsulfanyl)-5,6-dihydro-pyran-2-one] was 500 nM; that for `O=C1OC(CCC2=CCCCC2)(C2CCCC2)CC(O)=C1Sc1nnc(-c2ccncc2)[nH]1` (stereo not drawn) [C(04), 6-(2-Cyclohex-1-enyl-ethyl)-6-cyclopentyl-4-hydroxy-3-(5-pyridin-4-yl-4H-[1,2,4]triazol-3-ylsulfanyl)-5,6-dihydro-pyran-2-one] was 1800 nM; that for `COc1ccc(CCC2(C3CCCC3)CC(O)=C(Sc3nnc(O)n3C(C)C)C(=O)O2)cc1Cl` (stereo not drawn) [C(06), 6-[2-(3-Chloro-4-methoxy-phenyl)-ethyl]-6-cyclopentyl-4-hydroxy-3-(5-hydroxy-4-isopropyl-4H-[1,2,4]triazol-3-ylsulfanyl)-5,6-dihydro-pyran-2-one] was 250 nM.

On to `Cc1cc(C)n2nc(SC3=C(O)CC(CCc4ccc(OC(C)C)c(F)c4)(C4CCCC4)OC3=O)nc2n1` (stereo not drawn) [C(07), 6-Cyclopentyl-3-(5,7-dimethyl-[1,2,4]triazolo[1,5-a]pyrimidin-2-ylsulfanyl)-6-[2-(3-fluoro-4-isopropoxy-phenyl)-ethyl]-4-hydroxy-5,6-dihydro-pyran-2-one], for which the IC50 was 19 nM. Turning to `CC(C)Oc1ccc(CCC2(C3CCCC3)CC(O)=C(Sc3ccc(O)cc3)C(=O)O2)cc1F` (stereo not drawn) [C(08), 6-Cyclopentyl-6-[2-(3-fluoro-4-isopropoxy-phenyl)-ethyl]-4-hydroxy-3-(4-hydroxy-phenylsulfanyl)-5,6-dihydro-pyran-2-one], the IC50 came to 310 nM. The value for `Cc1nnc(SC2=C(O)CC(CCc3ccc(OC(C)C)c(F)c3)(C3CCCC3)OC2=O)s1` (stereo not drawn) [C(09), 6-Cyclopentyl-6-[2-(3-fluoro-4-isopropoxy-phenyl)-ethyl]-4-hydroxy-3-(5-methyl-[1,3,4]thiadiazol-2-ylsulfanyl)-5,6-dihydro-pyran-2-one] was 326 nM. With `COC(=O)c1nnc(SC2=C(O)CC(CCc3ccc(OC(C)C)c(F)c3)(C3CCCC3)OC2=O)n1C` (stereo not drawn) [C(10), 5-{6-Cyclopentyl-6-[2-(3-fluoro-4-isopropoxy-phenyl)-ethyl]-4-hydroxy-2-oxo-5,6-dihydro-2H-pyran-3-ylsulfanyl}-4-methyl-4H-[1,2,4]triazole-3-carboxylic acid methyl ester] the figure was 16 nM; with `CC(C)Oc1ccc(CCC2(C3CCCC3)CC(O)=C(Sc3ncccn3)C(=O)O2)cc1F` (stereo not drawn) [C(11), 6-Cyclopentyl-6-[2-(3-fluoro-4-isopropoxy-phenyl)-ethyl]-4-hydroxy-3-(pyrimidin-2-ylsulfanyl)-5,6-dihydro-pyran-2-one], 190 nM. For the compound `CC(C)Oc1ccc(CCC2(C3CCCC3)CC(O)=C(Sc3nnc(O)n3C(C)C)C(=O)O2)cc1F` (stereo not drawn) [C(12), 6-Cyclopentyl-6-[2-(3-fluoro-4-isopropoxy-phenyl)-ethyl]-4-hydroxy-3-(5-hydroxy-4-isopropyl-4H-[1,2,4]triazol-3-ylsulfanyl)-5,6-dihydro-pyran-2-one], the IC50 amounted to 82 nM.
